Experimental findings from ChEMBL document CHEMBL1201862, “PubChem BioAssay data set” (2004) are described below.

Some test systems named below: HT-29; IGROV-1; K562; A498; M14; CCRF-CEM; NCI-H522; SF-295; MCF7; MOLT-4; COLO 205; SK-MEL-2; NCI-H226; MDA-MB-231; HCC 2998; HL-60; ACHN; OVCAR-4; OVCAR-3.
Test in all cases: inhibition of tumour cell growth, NCI panel, 48 h

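Briefly, cells in 96-well plates were exposed to five compound concentrations for 48 h, and endpoints were estimated by linear interpolation. GI50: concentration for 50% inhibition of growth.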 The source made the active and inactive calls. Cut-off read from the data, not from the text of the source: active = GI50 up to about 1.1 µM and inactive = higher. A value given as a limit tells only on which side of the number the result lay.

Consider `OCc1cc2c([nH]c3ccccc32)c(C(O)CO)n1` (configuration not stated), for which the GI50 in the experiment on HT-29, in the experiment on IGROV-1, in the experiment with K562, in the experiment on A498, in the experiment on M14 and with CCRF-CEM was > 100 µM (inactive) in each case. Besides, the GI50 in the experiment on NCI-H522, in the experiment on SF-295, with MCF7, in the experiment on MOLT-4, in the experiment with COLO 205 and in the experiment on SK-MEL-2 was > 100 µM (inactive) in each case. Further, the GI50 in the experiment with NCI-H226, with MDA-MB-231, in the experiment with HCC 2998, in the experiment with HL-60, in the experiment with ACHN and in the experiment with OVCAR-4 was > 100 µM (inactive) each time. Further, in the experiment on OVCAR-3, the GI50 was > 100 µM (inactive).

Turning to `O=C(/C=C1\Nc2ccc([N+](=O)[O-])cc2N=C1NC12CC3CC(CC(C3)C1)C2)c1ccccc1`, the GI50 is > 10 µM (inactive) in the experiment on HT-29; > 10 µM (inactive) with IGROV-1; 3.85 µM (inactive) in the experiment on A498; > 10 µM (inactive) in the experiment on M14; > 10 µM (inactive) in the experiment with NCI-H522; > 10 µM (inactive) in the experiment on SF-295. Moreover, the GI50 was > 10 µM (inactive) with MCF7; > 10 µM (inactive) in the experiment with COLO 205; > 10 µM (inactive) in the experiment with SK-MEL-2; 5.5 µM (inactive) in the experiment on NCI-H226; 4.7 µM (inactive) in the experiment with MDA-MB-231; > 10 µM (inactive) with HCC 2998. Further, the results for the GI50 with ACHN, with OVCAR-4 and in the experiment with OVCAR-3 were > 10 µM (inactive), 3.96 µM (inactive) and > 10 µM (inactive), respectively.

Regarding `CCOC(=O)c1nc2cc(C(F)(F)F)ccc2nc1Nc1ccc(F)cc1`, the GI50 in the experiment with HT-29 is 97.9 µM (inactive); in the experiment on IGROV-1 it was 34.8 µM (inactive); in the experiment on K562, 13.3 µM (inactive); in the experiment with A498, 28.6 µM (inactive); in the experiment on M14, 49.4 µM (inactive); in the experiment with CCRF-CEM, 19.5 µM (inactive). For the same compound, the GI50 was 47.2 µM (inactive) in the experiment on SF-295; 85.5 µM (inactive) in the experiment with MCF7; > 10 µM (inactive) with MOLT-4; 97.3 µM (inactive) in the experiment on COLO 205; > 100 µM (inactive) in the experiment with SK-MEL-2; 41.1 µM (inactive) in the experiment on NCI-H226. Further, the GI50 was > 100 µM (inactive) in the experiment on MDA-MB-231, 19.6 µM (inactive) in the experiment with HCC 2998, 23.6 µM (inactive) in the experiment with OVCAR-4 and 44.8 µM (inactive) in the experiment on OVCAR-3.

With `COc1cc2c(cc1O)C1Cc3ccc(OC)c(O)c3C(C2)N1C` (configuration not stated), the GI50 in the experiment with HT-29 was 71 µM (inactive); with IGROV-1, > 100 µM (inactive); with A498 it was > 100 µM (inactive); in the experiment on M14 it was > 100 µM (inactive); in the experiment with CCRF-CEM it was > 100 µM (inactive); in the experiment on NCI-H522 it was > 100 µM (inactive). The GI50 with SF-295 was > 100 µM (inactive); with MCF7 it was > 100 µM (inactive); with MOLT-4, 58.1 µM (inactive); in the experiment on COLO 205, > 100 µM (inactive); in the experiment on SK-MEL-2, > 100 µM (inactive); with NCI-H226 it was > 100 µM (inactive). In addition, the GI50 is 41.5 µM (inactive) in the experiment with MDA-MB-231; > 100 µM (inactive) in the experiment with HCC 2998; > 100 µM (inactive) with HL-60; > 100 µM (inactive) with ACHN; > 100 µM (inactive) in the experiment with OVCAR-4; > 100 µM (inactive) in the experiment with OVCAR-3.

`CCOP(=O)(OCC)OC1c2[nH]ccc2-c2cc(C(=O)OC)[nH]c2C1OC` (configuration not stated): the GI50 with HT-29, with IGROV-1, with K562, with M14, in the experiment on CCRF-CEM and with NCI-H522 was > 100 µM (inactive) throughout. Further, the GI50 was > 100 µM (inactive) in the experiment on SF-295; > 100 µM (inactive) with MCF7; > 100 µM (inactive) in the experiment with MOLT-4; > 100 µM (inactive) in the experiment on COLO 205; > 100 µM (inactive) in the experiment with SK-MEL-2; 31.6 µM (inactive) with MDA-MB-231. Also, the GI50 with HCC 2998 is > 100 µM (inactive); with HL-60, 62.1 µM (inactive); in the experiment with ACHN, > 100 µM (inactive); with OVCAR-4, > 100 µM (inactive); in the experiment on OVCAR-3, > 100 µM (inactive).

Consider `CC1CC/C(=C\c2ccc(F)cc2)C2=C1C(c1ccc(F)cc1)NC(=S)N2` (configuration not stated), for which the GI50 was 29 µM (inactive) in the experiment on HT-29; 43.5 µM (inactive) in the experiment on IGROV-1; 35.5 µM (inactive) in the experiment with K562; 30.5 µM (inactive) in the experiment with A498; 50.9 µM (inactive) in the experiment on M14; 68.5 µM (inactive) in the experiment with CCRF-CEM. The GI50 in the experiment on SF-295 was 54.7 µM (inactive); in the experiment on MCF7, 53.3 µM (inactive); in the experiment on MOLT-4, 49.2 µM (inactive); in the experiment on COLO 205, 30.6 µM (inactive); in the experiment on SK-MEL-2, 28.2 µM (inactive); in the experiment on NCI-H226, 46.1 µM (inactive). The GI50 is 47.8 µM (inactive) in the experiment with MDA-MB-231, 38.5 µM (inactive) in the experiment with HL-60, 54.3 µM (inactive) with ACHN and 33.8 µM (inactive) in the experiment with OVCAR-3.

Turning to `CCOc1ccc2nc3cc(/N=N/c4ccc(N)nc4N)ccc3c(N)c2c1`, the GI50 in the experiment with HT-29 is 3.5 µM (inactive); with IGROV-1, 23.6 µM (inactive); in the experiment on K562 it was 0.299 µM (active); in the experiment on A498, 8.89 µM (inactive); with M14, 20 µM (inactive); in the experiment with CCRF-CEM, 0.136 µM (active). Besides, the GI50 in the experiment with NCI-H522 was 2.99 µM (inactive); in the experiment with SF-295, 22.6 µM (inactive); in the experiment with MCF7 it was 3.15 µM (inactive); in the experiment with MOLT-4, 1.46 µM (inactive); with COLO 205 it was 1.86 µM (inactive); in the experiment with SK-MEL-2, 2.1 µM (inactive). Also, the GI50 in the experiment with NCI-H226 is 21.7 µM (inactive); in the experiment with MDA-MB-231, 1.54 µM (inactive); in the experiment on HCC 2998, 1.79 µM (inactive); with HL-60 it was 1.95 µM (inactive); in the experiment with ACHN, 18.2 µM (inactive); with OVCAR-4 it was 6.92 µM (inactive). The GI50 with OVCAR-3 was 1.53 µM (inactive).

For `CC1=NC(=N)N=C(C)C1/N=N/c1ccc2[nH]c(C)nc2c1` (configuration not stated), the GI50 in the experiment on HT-29, in the experiment on IGROV-1, in the experiment on K562, in the experiment on A498, with M14 and in the experiment with CCRF-CEM was > 100 µM (inactive) each time. Moreover, the GI50 in the experiment with NCI-H522, in the experiment on SF-295, in the experiment with MCF7, in the experiment on MOLT-4, in the experiment with COLO 205 and with SK-MEL-2 was > 100 µM (inactive) in each case. In addition, the GI50 with NCI-H226, in the experiment with MDA-MB-231, in the experiment on HCC 2998, in the experiment with HL-60, in the experiment with ACHN and with OVCAR-4 was > 100 µM (inactive) in each case. In the experiment with OVCAR-3, the GI50 is > 100 µM (inactive).

In the case of `COC(=O)C(=O)C(C(=O)C(=O)Nc1cccc(OC)c1)c1nc2ccc(Cl)cc2nc1O` (configuration not stated), the GI50 in the experiment with HT-29 is > 100 µM (inactive); in the experiment on IGROV-1 it was > 100 µM (inactive); in the experiment with K562 it was > 100 µM (inactive); in the experiment on A498 it was > 100 µM (inactive); with M14, > 100 µM (inactive); with CCRF-CEM, 12.9 µM (inactive). The GI50 in the experiment on NCI-H522, in the experiment on SF-295, in the experiment with MCF7, in the experiment on MOLT-4, with COLO 205 and with SK-MEL-2 was > 100 µM (inactive) throughout. The GI50 in the experiment on NCI-H226 is > 100 µM (inactive); with MDA-MB-231 it was > 100 µM (inactive); in the experiment on HCC 2998 it was 96.2 µM (inactive); in the experiment with HL-60, > 100 µM (inactive); in the experiment on ACHN, > 100 µM (inactive); with OVCAR-4, > 100 µM (inactive). Further, the GI50 with OVCAR-3 is > 100 µM (inactive).

For `C#CCOC(=O)C(N)CS` (configuration not stated), the GI50 in the experiment with HT-29, in the experiment on IGROV-1, in the experiment with K562, with A498, in the experiment with M14 and in the experiment with CCRF-CEM was > 100 µM (inactive) throughout. Also, the GI50 in the experiment with NCI-H522, in the experiment on SF-295, in the experiment on MCF7, in the experiment with MOLT-4, in the experiment with COLO 205 and in the experiment on SK-MEL-2 was > 100 µM (inactive) throughout. Moreover, the GI50 with NCI-H226, in the experiment with MDA-MB-231, in the experiment on HL-60, with ACHN and in the experiment on OVCAR-3 was > 100 µM (inactive) in each case.

Take `CCC(CCCCC1CC[C@H]2CC(=O)C[C@@H]12)OC` (some centres not stated): the GI50 was > 100 µM (inactive) in the experiment on HT-29; > 100 µM (inactive) with IGROV-1; 26.5 µM (inactive) with K562; > 100 µM (inactive) with A498; 79.8 µM (inactive) in the experiment with CCRF-CEM; > 100 µM (inactive) with NCI-H522. For the same compound, the GI50 with SF-295, with MCF7, with MOLT-4, with COLO 205, with SK-MEL-2 and with NCI-H226 was > 100 µM (inactive) throughout. The GI50 with MDA-MB-231 was > 100 µM (inactive); in the experiment on HCC 2998, > 100 µM (inactive); with HL-60, 36.7 µM (inactive); with ACHN it was > 100 µM (inactive); in the experiment with OVCAR-3, > 100 µM (inactive).
